From patent publication US20110028445A1, “Urea derivatives of benzomorphanes and related scaffolds, medicaments containing such compounds and their use” (BOEHRINGER INGELHEIM INTERNATIONAL GMBH, priority 2008, published 2011)

Biological target: T1, 11β-HSD1 (Homo sapiens, UniProt P28845)
T1 construct: detecting cortisol generated from cortisterone by human liver microsomes; from tissue; host or cells: human liver microsomes
Assay: In vitro inhibition of 11β-HSD1, HTRF detection of cortisol generated by human liver microsomes
Format: biochemical
Details: compound concentration 1 μM, 100% indicates no inhibition, zero or below zero indicates complete inhibition, cortisone 80 nM, 1 hour at 37° C., read-out: % CTL at 1 μM
Procedure: Briefly, compounds were incubated for 1 hour at 37° C. in Tris buffer (20 mM tris, 5 mM EDTA, pH 6.0) containing NADPH (200 μM) and cortisone (80 nM). Cortisol generated in the reaction is then detected with a competitive immunoassay, involving two HTRF conjugates: cortisol linked to XL665 and anti-cortisol antibody labeled with Europium cryptate. The incubation period for detection reaction was typically 2 hours. The amount of cortisol is determined by reading the time-resolved fluorescence of the wells (Ex 320/75 nm; Em 615/8.5 nm and 665/7.5 nm). The ratio of the two emission signals is then calculated (Em665*10000/Em615). […] Each assay also contained a calibration curve with cortisol to transform the fluorescent data into cortisol concentrations. Percent inhibition of each compound was determined relative to the carbenoxolone signal and IC50 curves were generated.
The % CTL values of some example compounds at a concentration of 1 μM are provided in the following Table 2 wherein 100% indicates no inhibition and a value of zero or below zero indicates complete inhibition. The measurement of % CTL is described hereinbefore.

T1 sequence (P28845 whole entry): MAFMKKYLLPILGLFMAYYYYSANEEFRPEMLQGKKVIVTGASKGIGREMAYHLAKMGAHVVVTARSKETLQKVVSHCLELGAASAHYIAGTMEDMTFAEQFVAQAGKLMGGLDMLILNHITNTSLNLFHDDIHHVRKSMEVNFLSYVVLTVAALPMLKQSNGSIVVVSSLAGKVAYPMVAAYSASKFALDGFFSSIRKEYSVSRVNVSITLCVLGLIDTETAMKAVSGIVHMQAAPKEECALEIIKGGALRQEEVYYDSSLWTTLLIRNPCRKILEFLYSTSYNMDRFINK

Structure (SMILES) | remaining activity at 1 µM [%]
CC1(C)[C@H]2Cc3c(O)cccc3[C@]1(C)CCN2C(=O)N1CCCCC1 [Example 1, [(2R,6S)-10-Hydroxy-6,11,11-trimethyl-1,2,5,6-tetrahydro-4H-2,6-methano-benzo[d]azocin-3-yl]-piperidin-1-yl-methanone] | -46
CC1(C)[C@H]2Cc3c(O)cccc3[C@]1(C)CCN2C(=O)N1CCCC1 [Example 2] | 18
CC1(C)[C@H]2Cc3c(O)cccc3[C@]1(C)CCN2C(=O)N1CCOCC1 [Example 3] | 84
CC1(C)[C@H]2Cc3c(O)cccc3[C@]1(C)CCN2C(=O)N1CCc2ccsc2C1 [Example 7, (4,7-Dihydro-5H-thieno[2,3-c]pyridin-6-yl)-[(2R,6S)-10-hydroxy-6,11,11-trimethyl-1,2,5,6-tetrahydro-4H-2,6-methano-benzo[d]azocin-3-yl]-methanone] | -32
CC1(C)[C@H]2Cc3c(O)cccc3[C@]1(C)CCN2C(=O)N1CCc2sccc2C1 [Example 8] | -27
CC1CCN(C(=O)N2CC[C@@]3(C)c4cccc(O)c4C[C@@H]2C3(C)C)CC1 [Example 9] | -14
CC1(C)[C@H]2Cc3c(O)cccc3[C@]1(C)CCN2C(=O)N1Cc2ccccc2C1 [Example 10] | 53
CC1(C)[C@H]2Cc3c(O)cccc3[C@]1(C)CCN2C(=O)N1CCc2ccccc2C1 [Example 11] | 18
COC1CCN(C(=O)N2CC[C@@]3(C)c4cccc(O)c4C[C@@H]2C3(C)C)CC1 [Example 12] | -39
CC1(C)[C@H]2Cc3c(O)cccc3[C@]1(C)CCN2C(=O)N1CCC(O)CC1 [Example 13] | -53
CC1(C)[C@H]2Cc3c(O)cccc3[C@]1(C)CCN2C(=O)N1C2CCC1CC(O)C2 (stereo partly shown) [Example 14] | -46
CC1(C)[C@H]2Cc3c(O)cccc3[C@]1(C)CCN2C(=O)N1CCc2nc[nH]c2C1 [Example 15] | 14
CC1(C)[C@H]2Cc3c(O)cccc3[C@]1(C)CCN2C(=O)N1CCCc2ccccc21 [Example 16] | -41
CC1(C)[C@H]2Cc3c(O)cccc3[C@]1(C)CCN2C(=O)N1[C@@H]2CC[C@H]1C[C@@H](c1ccc(F)cc1)C2 [Example 17] | -43
CC1(C)[C@H]2Cc3c(O)cccc3[C@]1(C)CCN2C(=O)N1CCc2ccccc21 [Example 18] | -8
CC1(C)[C@H]2Cc3ccccc3[C@]1(C)CCN2C(=O)N1CCCCC1 [Example 19] | -47
C[C@@H]1[C@H]2Cc3ccc(O)cc3[C@]1(C)CCN2C(=O)N1CCCCC1 [Example 20] | -39
C[C@@H]1[C@H]2Cc3ccc(C#N)cc3[C@]1(C)CCN2C(=O)N1CCCCC1 [Example 21] | -28
CC1(C)[C@H]2Cc3c(O)cccc3[C@]1(C)CCN2C(=O)N1CCC(CO)C1 (stereo partly shown) [Example 22] | -4
CC1(C)[C@H]2Cc3c(O)cccc3[C@]1(C)CCN2C(=O)N1CCCC(O)C1 (stereo partly shown) [Example 23] | -9

Structure (SMILES) | remaining activity at 1 µM [%]
CC1(C)[C@H]2Cc3c(O)cccc3[C@]1(C)CCN2C(=O)N1CC(O)C1 [Example 24] | 70
CC1(C)[C@H]2Cc3c(O)cccc3[C@]1(C)CCN2C(=O)N1CCC(CO)CC1 [Example 25] | -43
CC1(C)[C@H]2Cc3c(O)cccc3[C@]1(C)CCN2C(=O)N1CCCC(O)CC1 (stereo partly shown) [Example 26] | -41
CC1(O)CCN(C(=O)N2CC[C@@]3(C)c4cccc(O)c4C[C@@H]2C3(C)C)CC1 [Example 27] | -41
CC1(C)[C@H]2Cc3c(O)cccc3[C@]1(C)CCN2C(=O)N1CCCC1CO (stereo partly shown) [Example 28] | 36
CC1(C)[C@H]2Cc3c(O)cccc3[C@]1(C)CCN2C(=O)N1CCC(O)C1 (stereo partly shown) [Example 29] | 30
CC1(C)[C@H]2Cc3c(O)cccc3[C@]1(C)CCN2C(=O)N1CCCC(CO)C1 (stereo partly shown) [Example 30] | -54
COc1cccc2c1C[C@H]1N(C(=O)N3CCCCC3)CC[C@]2(C)C1(C)C [Example 31, [(2R,6S)-10-Methoxy-6,11,11-trimethyl-1,2,5,6-tetrahydro-4H-2,6-methano-benzo[d]azocin-3-yl]-piperidin-1-yl-methanone] | -6
CC1(C)[C@H]2Cc3c(OCc4ccccc4)cccc3[C@]1(C)CCN2C(=O)N1CCCCC1 [Example 32] | 82
CC1(C)[C@H]2Cc3c(OCC#N)cccc3[C@]1(C)CCN2C(=O)N1CCCCC1 [Example 33] | 23
CC1(C)[C@H]2Cc3c(ccc(C#N)c3O)[C@]1(C)CCN2C(=O)N1CCCCC1 [Example 35, (2R,6S)-10-Hydroxy-6,11,11-trimethyl-3-(piperidine-1-carbonyl)-1,2,3,4,5,6-hexahydro-2,6-methano-benzo[d]azocine-9-carbonitrile] | -30
CC1(C)[C@H]2Cc3cc(C#N)ccc3[C@]1(C)CCN2C(=O)N1CCCCC1 [Example 36, (2R,6S)-6,11,11-Trimethyl-3-(piperidine-1-carbonyl)-1,2,3,4,5,6-hexahydro-2,6-methano-benzo[d]azocine-9-carbonitrile] | -31
CC1(C)[C@H]2Cc3c(O)cccc3[C@]1(C)CCN2C(=O)N1CCC(O)(CO)CC1 [Example 37] | -7
CC1(C)[C@H]2Cc3c(O)cccc3[C@]1(C)CCN2C(=O)N1C2CCCC1CC(O)C2 (stereo partly shown) [Example 40] | -17
CC1(C)[C@H]2Cc3c(O)cccc3[C@]1(C)CCN2C(=O)N1CCCC(C(N)=O)C1 (stereo partly shown) [Example 41] | -56
CC1(C)[C@H]2Cc3c(O)cccc3[C@]1(C)CCN2C(=O)N1CCCC(C(=O)Nc2ccccc2)C1 (stereo partly shown) [Example 42] | 32
CC1(C)[C@H]2Cc3c(O)cccc3[C@]1(C)CCN2C(=O)N1CCCC2(CCCNC2=O)C1 (stereo partly shown) [Example 43] | -45
CC1(C)[C@H]2Cc3c(O)cccc3[C@]1(C)CCN2C(=O)N1CCc2cc(O)ccc2C1 [Example 44] | -4
CC1(C)[C@H]2Cc3c(O)cccc3[C@]1(C)CCN2C(=O)N1CCc2cccc(O)c2C1 [Example 46, (8-Hydroxy-3,4-dihydro-1H-isoquinolin-2-yl)-[(2R,6S)-10-hydroxy-6,11,11-trimethyl-1,2,5,6-tetrahydro-4H-2,6-methano-benzo[d]azocin-3-yl]-methanone] | -10
CC1(C)[C@H]2Cc3c(O)cccc3[C@]1(C)CCN2C(=O)N1CCn2cnnc2C1 [Example 47] | 94

Structure (SMILES) | remaining activity at 1 µM [%]
Cc1ccc2c(c1)CCCN2C(=O)N1CC[C@@]2(C)c3cccc(O)c3C[C@@H]1C2(C)C [Example 48] | -18
CC1(C)[C@H]2Cc3c(O)cccc3[C@]1(C)CCN2C(=O)N1CCCc2cc(NC(=O)C(F)(F)F)ccc21 [Example 49] | 23
CC1(C)[C@H]2Cc3c(O)cccc3[C@]1(C)CCN2C(=O)N1CCC(C(N)=O)CC1 [Example 50] | -20
CC(C)(C)C1COc2ccccc2N1C(=O)N1CC[C@@]2(C)c3cccc(O)c3C[C@@H]1C2(C)C (stereo partly shown) [Example 51] | 94
CC1(C)[C@H]2Cc3c(O)cccc3[C@]1(C)CCN2C(=O)N1CCCC(c2nc3ccccc3[nH]2)C1 (stereo partly shown) [Example 52] | 27
CC1(C)[C@H]2Cc3c(O)cccc3[C@]1(C)CCN2C(=O)N1CCc2cc(O)ccc21 [Example 53] | 7
CC1(O)CCN(C(=O)N2CC[C@@]3(C)c4ccccc4C[C@@H]2C3(C)C)CC1 [Example 54] | -25
CC1(C)[C@H]2Cc3c(O)cccc3[C@]1(C)CCN2C(=O)N1CCCC2(CCNC2=O)C1 (stereo partly shown) [Example 55] | -31
CC1(C)[C@H]2Cc3c(O)cccc3[C@]1(C)CCN2C(=O)N1CCc2ccc(O)cc2C1 [Example 58] | -37
CC1(C)[C@H]2Cc3c(O)cccc3[C@]1(C)CCN2C(=O)N1CCCC(c2nnn[nH]2)C1 (stereo partly shown) [Example 59] | 70
CC1(C)[C@H]2Cc3ccccc3[C@]1(C)CCN2C(=O)N1CCCC2(CCCNC2=O)C1 (stereo partly shown) [Example 60] | -19
CC1(C)[C@H]2Cc3ccccc3[C@]1(C)CCN2C(=O)N1CCC(c2ccccc2)C1 (stereo partly shown) [Example 61] | 7
CCOC(=O)[C@H]1CCCN(C(=O)N2CC[C@@]3(C)c4ccccc4C[C@@H]2C3(C)C)C1 [Example 62] | 13
CCOC(=O)C1CCCN(C(=O)N2CC[C@@]3(C)c4ccccc4C[C@@H]2C3(C)C)C1 (stereo partly shown) [Example 63] | 47
CC1(C)[C@H]2Cc3ccccc3[C@]1(C)CCN2C(=O)N1CCC[C@H](CO)C1 [Example 64] | -33
CC(C)(O)C1CCN(C(=O)N2CC[C@@]3(C)c4ccccc4C[C@@H]2C3(C)C)CC1 [Example 65] | 2
CC(C)(O)[C@@H]1CCCN(C(=O)N2CC[C@@]3(C)c4ccccc4C[C@@H]2C3(C)C)C1 [Example 66, [(R)-3-(1-Hydroxy-1-methyl-ethyl)-piperidin-1-yl]-[(2R,6S)-6,11,11-trimethyl-1,2,5,6-tetrahydro-4H-2,6-methano-benzo[d]azocin-3-yl]-methanone] | -16
CC1(C)[C@H]2Cc3ccccc3[C@]1(C)CCN2C(=O)N1CCOC[C@H]1c1ccccc1 [Example 67] | 71
